Laboratory results as given in US20100267561A1, “HERBICIDAL PYRIDAZINONE DERIVATIVES” (priority 2007, published 2010).

What was measured:
Format in all cases: in vivo
[1] = tested on: lambsquarters (Chenopodium album); assay: Test B pre-/postemergence plant response; details: for Lambsquarters plant response rating: 8 g ai/ha
Text: (§1) Seeds of plant species selected from blackgrass (Alopecurus myosuroides), downy bromegrass (Bromus tectorum), green foxtail (Setaria viridis), Italian ryegrass (Lolium multiflorum), wheat (Triticum aestivum), wild oat (Avena fatua), catchweed bedstraw (Galium aparine), bermudagrass (Cynodon dactylon), surinam grass (Brachiaria decumbens), cocklebur (Xanthium strumarium), corn (Zea mays), large crabgrass (Digitaria sanguinalis), woolly cupgrass (Eriochloa villosa), giant foxtail (Setaria faberii), goosegrass (Eleusine indica), johnsongrass (Sorghum halepense), kochia (Kochia scoparia), lambsquarters (Chenopodium album), morningglory (Ipomoea coccinea), eastern black (E.B.) nightshade (Solanum ptycanthum), yellow nutsedge (Cyperus esculentus), pigweed (Amaranthus retroflexus), common ragweed (Ambrosia elation), Russian thistle (Salsola iberica), soybean (Glycine max), common (oilseed) sunflower (Helianthus annuus), and velvetleaf (Abutilon theophrasti) were planted and treated preemergence with test chemicals formulated in a non-phytotoxic solvent mixture which included a surfactant.
(§2) At the same time, plants selected from these crop and weed species and also winter barley (Hordeum vulgare), canarygrass (Phalaris minor), chickweed (Stellaria media) and windgrass (Apera spica-venti) were treated with postemergence applications of some of the test chemicals formulated in the same manner. Plants ranged in height from 2 to 18 cm (1- to 4-leaf stage) for postemergence treatments.
(§3) Plant species in the flooded paddy test consisted of rice (Oryza sativa), umbrella sedge (Cyperus difformis), ducksalad (Heteranthera limosa) and barnyardgrass (Echinochloa crus-galli) grown to the 2-leaf stage for testing. At time of treatment, test pots were flooded to 3 cm above the soil surface, treated by application of test compounds directly to the paddy water, and then maintained at that water depth for the duration of the test. Treated plants and controls were maintained in a greenhouse for 13 to 15 days, after which time all species were compared to controls and visually evaluated. Plant response ratings, summarized in Table B, are based on a scale of 0 to 100 where 0 is no effect and 100 is complete control. A dash (-) response means no test result.

[2] = tested on: morningglory (Ipomoea coccinea); assay: Test B pre-/postemergence plant response; details: for Morningglory plant response rating: 8 g ai/ha
Text: as §1, §2, §3

[3] = tested on: blackgrass (Alopecurus myosuroides); assay: Test B pre-/postemergence plant response
Text: as §1, §2, §3

[4] = tested on: corn (Zea mays); assay: Test A pre-/postemergence plant response
How it was run: (§4)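 Both pre- and postemergence treatment given concurrently; postemergence seedlings measured 2–10 cm at the one- to two-leaf stage. Visual injury, 0–100 scale versus untreated, at ~10 days.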

[5] = tested on: velvetleaf (Abutilon theophrasti); assay: Test A pre-/postemergence plant response
How it was run: as §4

[6] = tested on: morningglory (Ipomoea coccinea); assay: Test A pre-/postemergence plant response
How it was run: as §4

[7] = tested on: giant foxtail (Setaria faberi); assay: Test A pre-/postemergence plant response
How it was run: as §4

[8] = tested on: pigweed (Amaranthus retroflexus); assay: Test A pre-/postemergence plant response
How it was run: as §4

[9] = tested on: barnyardgrass (Echinochloa crus-galli); assay: Test A pre-/postemergence plant response
How it was run: as §4

[10] = tested on: wheat (Triticum aestivum); assay: Test A pre-/postemergence plant response
How it was run: as §4

[11] = tested on: large crabgrass (Digitaria sanguinalis); assay: Test A pre-/postemergence plant response
How it was run: as §4

[12] = Postemergence, 16 g ai/ha, scale 0 to 100
[13] = Postemergence, 31 g ai/ha, scale 0 to 100, 0 no effect, 100 complete control
[14] = Postemergence, 62 g ai/ha, scale 0 to 100, 0 no effect, 100 complete control
[15] = Preemergence, 16 g ai/ha, scale 0 to 100 (0 no effect, 100 complete control)
[16] = Preemergence, 31 g ai/ha, 0 to 100 scale, 0 no effect, 100 complete control
[17] = Preemergence, 62 g ai/ha, scale 0 to 100
[18] = Preemergence, 8 g ai/ha, scale 0 to 100
[19] = Postemergence, 31 g ai/ha, 0 to 100 scale, 0 no effect, 100 complete control
[20] = Postemergence, 125 g ai/ha, 0 to 100 scale, 0 no effect, 100 complete control
[21] = Preemergence, 31 g ai/ha, 0 to 100 scale, 0 is no effect, 100 is complete control
[22] = Preemergence, 125 g ai/ha, 0 to 100 scale (0 no effect, 100 complete control)
[23] = Postemergence, 62 g ai/ha, scale 0 to 100
[24] = Postemergence, 125 g ai/ha, scale 0 to 100
[25] = Postemergence, 250 g ai/ha, scale 0 to 100
[26] = Preemergence, 125 g ai/ha, scale 0 to 100
[27] = Postemergence, 500 g ai/ha, 0 to 100 scale, 0 no effect, 100 complete control
[28] = Preemergence, 500 g ai/ha, 0 to 100 scale (0 no effect, 100 complete control)

## Cc1cc(-c2ccc(Cl)cc2)nn1-c1c(OC(=O)CC(C)C)cnn(C)c1=O [Compound 37]
[1]; postemergence, 0-100 scale
  Lambsquarters plant response rating: 0
[1]; [12]
  Plant response rating, Lambsquarters: 0
[1]; [13]
  Plant response rating, Lambsquarters: 0
[1]; [14]
  Plant response rating, Lambsquarters: 0
[1]; [15]
  Plant response rating, Lambsquarters: 0
[1]; [16]
  Plant response rating, Lambsquarters: 0
[1]; [17]
  Plant response rating, Lambsquarters: 0
[1]; Preemergence, scale 0 to 100
  Lambsquarters plant response rating: 0
[2]; postemergence, 0-100 scale
  Morningglory plant response rating: 0
[2]; [12]
  Plant response rating, Morningglory: 0
[2]; [13]
  Plant response rating, Morningglory: 0
[2]; [14]
  Plant response rating, Morningglory: 0
[2]; [15]
  Plant response rating, Morningglory: 0
[2]; [16]
  Plant response rating, Morningglory: 0
[2]; [17]
  Plant response rating, Morningglory: 0
[2]; Preemergence, scale 0 to 100
  Morningglory plant response rating: 0
[3]; 8 g ai/ha, postemergence, 0-100 scale
  Blackgrass plant response rating: 10
[3]; [12]
  Plant response rating, Blackgrass: 75
[3]; [13]
  Plant response rating, Blackgrass: 90
[3]; [14]
  Plant response rating, Blackgrass: 90
[3]; [15]
  Plant response rating, Blackgrass: 100
[3]; [16]
  Plant response rating, Blackgrass: 100
[3]; [17]
  Plant response rating, Blackgrass: 100
[3]; [18]
  Blackgrass plant response rating: 95
[4]; [19]
  Plant response rating, Corn: 60
[4]; [20]
  Plant response rating, Corn: 100
[4]; [21]
  Plant response rating, Corn: 30
[4]; [22]
  Plant response rating, Corn: 90
[5]; [19]
  Plant response rating, Velvetleaf: 0
[5]; [20]
  Plant response rating, Velvetleaf: 0
[5]; [21]
  Plant response rating, Velvetleaf: 0
[5]; [22]
  Plant response rating, Velvetleaf: 0
[6]; [19]
  Plant response rating, Morningglory: 0
[6]; [20]
  Plant response rating, Morningglory: 0
[6]; [21]
  Plant response rating, Morningglory: 0
[6]; [22]
  Plant response rating, Morningglory: 0
[7]; [19]
  Plant response rating, Foxtail, Giant: 80
[7]; [20]
  Plant response rating, Foxtail, Giant: 100
[7]; [21]
  Plant response rating, Foxtail, Giant: 100
[7]; [22]
  Plant response rating, Foxtail, Giant: 100
[8]; [19]
  Plant response rating, Pigweed: 0
[8]; [20]
  Plant response rating, Pigweed: 0
[8]; [21]
  Plant response rating, Pigweed: 0
[8]; [22]
  Plant response rating, Pigweed: 0
[9]; [19]
  Plant response rating, Barnyardgrass: 90
[9]; [20]
  Plant response rating, Barnyardgrass: 100
[9]; [21]
  Plant response rating, Barnyardgrass: 90
[9]; [22]
  Plant response rating, Barnyardgrass: 100
[10]; [19]
  Plant response rating, Wheat: 20
[10]; [20]
  Plant response rating, Wheat: 70
[10]; [21]
  Plant response rating, Wheat: 30
[10]; [22]
  Plant response rating, Wheat: 90
[11]; [19]
  Plant response rating, Crabgrass, Large: 50
[11]; [20]
  Plant response rating, Crabgrass, Large: 90
[11]; [21]
  Plant response rating, Crabgrass, Large: 80
[11]; [22]
  Plant response rating, Crabgrass, Large: 100

## Cc1cc(-c2ccc(Cl)cc2)nn1-c1c(OS(=O)(=O)C(C)C)cnn(C)c1=O [Compound 50]
[1]; [15]
  Plant response rating, Lambsquarters: 65
[1]; [16]
  Plant response rating, Lambsquarters: 100
[1]; [17]
  Plant response rating, Lambsquarters: 100
[1]; Preemergence, scale 0 to 100
  Lambsquarters plant response rating: 0
[2]; [15]
  Plant response rating, Morningglory: 0
[2]; Preemergence, 31 g ai/ha, scale 0 to 100 (0 no effect, 100 complete control)
  Plant response rating, Morningglory: 0
[2]; [17]
  Plant response rating, Morningglory: 30
[2]; Preemergence, scale 0 to 100
  Morningglory plant response rating: 0
[3]; [15]
  Plant response rating, Blackgrass: 0
[3]; [16]
  Plant response rating, Blackgrass: 60
[3]; [17]
  Plant response rating, Blackgrass: 95
[3]; [18]
  Blackgrass plant response rating: 0
[4]; [19]
  Plant response rating, Corn: 0
[4]; [20]
  Plant response rating, Corn: 30
[4]; [21]
  Plant response rating, Corn: 0
[4]; [22]
  Plant response rating, Corn: 20
[5]; [19]
  Plant response rating, Velvetleaf: 0
[5]; [20]
  Plant response rating, Velvetleaf: 0
[5]; [21]
  Plant response rating, Velvetleaf: 0
[5]; [22]
  Plant response rating, Velvetleaf: 0
[6]; [19]
  Plant response rating, Morningglory: 0
[6]; [20]
  Plant response rating, Morningglory: 0
[6]; [21]
  Plant response rating, Morningglory: 0
[6]; [22]
  Plant response rating, Morningglory: 0
[7]; [19]
  Plant response rating, Foxtail, Giant: 0
[7]; [20]
  Plant response rating, Foxtail, Giant: 60
[7]; [21]
  Plant response rating, Foxtail, Giant: 70
[7]; [22]
  Plant response rating, Foxtail, Giant: 90
[8]; [19]
  Plant response rating, Pigweed: 0
[8]; [20]
  Plant response rating, Pigweed: 0
[8]; [21]
  Plant response rating, Pigweed: 0
[8]; [22]
  Plant response rating, Pigweed: 0
[9]; [19]
  Plant response rating, Barnyardgrass: 0
[9]; [20]
  Plant response rating, Barnyardgrass: 70
[9]; [21]
  Plant response rating, Barnyardgrass: 10
[9]; [22]
  Plant response rating, Barnyardgrass: 100
[10]; [19]
  Plant response rating, Wheat: 0
[10]; [20]
  Plant response rating, Wheat: 20
[10]; [21]
  Plant response rating, Wheat: 0
[10]; [22]
  Plant response rating, Wheat: 50
[11]; [19]
  Plant response rating, Crabgrass, Large: 0
[11]; [20]
  Plant response rating, Crabgrass, Large: 40
[11]; [21]
  Plant response rating, Crabgrass, Large: 50
[11]; [22]
  Plant response rating, Crabgrass, Large: 90

## Cc1nn(C)c(=O)c(-n2nc(-c3ccc(Cl)cc3)cc2C)c1O [Compound 15]
[1]; [13]
  Plant response rating, Lambsquarters: 0
[1]; [23]
  Plant response rating, Lambsquarters: 0
[1]; [24]
  Plant response rating, Lambsquarters: 0
[1]; [25]
  Plant response rating, Lambsquarters: 0
[1]; [16]
  Plant response rating, Lambsquarters: 0
[1]; [17]
  Plant response rating, Lambsquarters: 0
[1]; [26]
  Plant response rating, Lambsquarters: 0
[1]; Preemergence, 250 g ai/ha, scale 0 to 100
  Plant response rating, Lambsquarters: 0
[2]; [13]
  Plant response rating, Morningglory: 0
[2]; [23]
  Plant response rating, Morningglory: 0
[2]; [24]
  Plant response rating, Morningglory: 0
[2]; [25]
  Plant response rating, Morningglory: 0
[2]; [16]
  Plant response rating, Morningglory: 0
[2]; [26]
  Plant response rating, Morningglory: 0
[3]; 250 g ai/ha, preemergence, 0-100 scale
  Blackgrass plant response rating: 100
[3]; [13]
  Plant response rating, Blackgrass: 90
[3]; [23]
  Plant response rating, Blackgrass: 95
[3]; [24]
  Plant response rating, Blackgrass: 95
[3]; [25]
  Plant response rating, Blackgrass: 98
[3]; [16]
  Plant response rating, Blackgrass: 100
[3]; [17]
  Plant response rating, Blackgrass: 100
[3]; [26]
  Plant response rating, Blackgrass: 100
[4]; [20]
  Plant response rating, Corn: 70
[4]; [27]
  Plant response rating, Corn: 90
[4]; [22]
  Plant response rating, Corn: 50
[4]; [28]
  Plant response rating, Corn: 90
[5]; [20]
  Plant response rating, Velvetleaf: 0
[5]; [27]
  Plant response rating, Velvetleaf: 0
[5]; [22]
  Plant response rating, Velvetleaf: 0
[5]; [28]
  Plant response rating, Velvetleaf: 0
[6]; [20]
  Plant response rating, Morningglory: 0
[6]; [27]
  Plant response rating, Morningglory: 0
[6]; [22]
  Plant response rating, Morningglory: 0
[6]; [28]
  Plant response rating, Morningglory: 0
[7]; [20]
  Plant response rating, Foxtail, Giant: 90
[7]; [27]
  Plant response rating, Foxtail, Giant: 100
[7]; [22]
  Plant response rating, Foxtail, Giant: 90
[7]; [28]
  Plant response rating, Foxtail, Giant: 100
[8]; [20]
  Plant response rating, Pigweed: 0
[8]; [27]
  Plant response rating, Pigweed: 0
[8]; [22]
  Plant response rating, Pigweed: 0
[8]; [28]
  Plant response rating, Pigweed: 0
[9]; [20]
  Plant response rating, Barnyardgrass: 100
[9]; [27]
  Plant response rating, Barnyardgrass: 100
[9]; [22]
  Plant response rating, Barnyardgrass: 100
[9]; [28]
  Plant response rating, Barnyardgrass: 100
[10]; [20]
  Plant response rating, Wheat: 50
[10]; [27]
  Plant response rating, Wheat: 60
[10]; [22]
  Plant response rating, Wheat: 60
[10]; [28]
  Plant response rating, Wheat: 80
[11]; [20]
  Plant response rating, Crabgrass, Large: 90
[11]; [27]
  Plant response rating, Crabgrass, Large: 100
[11]; [22]
  Plant response rating, Crabgrass, Large: 80
[11]; [28]
  Plant response rating, Crabgrass, Large: 100
